Results taken from PubChem BioAssay AID2060909 (Molecular Pharmacology Branch, DTP, NCI, 2025).
Values joined by “and” are separate entries in the source; they are usually repeats but may differ in a detail not shown here. Equal entries are not always repeated.

Tested on: 362531-283-R-J2-PDC complex spheroid viability
Test: Anticancer human tumor 362531-283-R-J2-PDC patient-derived colon adenocarcinoma cell line growth inhibition [RAS]
Conditions: for viability, T/C: stronger effect = lower value
Procedure, shortened: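 Agents were tested in combination matrices in half-log decrements from a top concentration at or near clinical Cmax (10 microM if undetermined). Targets were multi-cell spheroids of tumour lines plus HUVEC and MSC stromal cells.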

[1] = curve of first compound, second compound 0.0316 µM
[2] = curve of first compound, second compound 0.1 µM
[3] = curve of first compound, second compound 0.316 µM
[4] = curve of first compound, second compound 1 µM
[5] = second compound 0.0316 µM, first compound 0.0316 µM
[6] = second compound 0.0316 µM, first compound 0.1 µM
[7] = second compound 0.0316 µM, first compound 0.316 µM
[8] = second compound 0.0316 µM, first compound 1 µM
[9] = second compound 0.1 µM, first compound 0.0316 µM
[10] = second compound 0.1 µM, first compound 0.1 µM
[11] = second compound 0.1 µM, first compound 0.316 µM
[12] = second compound 0.1 µM, first compound 1 µM
[13] = second compound 0.316 µM, first compound 0.0316 µM
[14] = second compound 0.316 µM, first compound 0.1 µM
[15] = second compound 0.316 µM, first compound 0.316 µM
[16] = second compound 0.316 µM, first compound 1 µM
[17] = second compound 1 µM, first compound 0.0316 µM
[18] = second compound 1 µM, first compound 0.1 µM
[19] = second compound 1 µM, first compound 0.316 µM
[20] = second compound 1 µM, first compound 1 µM
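Further: spheroids exposed to the agents for 7 days before readout.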
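Wherever viability, T/C is given: luminescence viability as percent of DMSO vehicle control wells.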

In the case of `CC(C)n1nc(-c2ccc3oc(N)nc3c2)c2c(N)ncnc21`, the viability, T/C (compound 0.000316 µM) is reported as 103% [middle of 4 runs], the viability, T/C (compound 0.001 µM) is reported as 99.1% [middle of 4 runs] and the viability, T/C (compound 0.00316 µM) is reported as 101% [middle of 4 runs]. For the same compound, the viability, T/C (compound 0.0316 µM) was 63.5% [middle of 4 runs] and the IC50 (curve of compound) was 53.9 nM and > 100 nM and 75.8 nM.
Compound `Nc1ccn(C2OC(CO)C(O)C2(F)F)c(=O)n1` (stereo not drawn) + CCn1c(-c2cc(N3CCN(C)CC3)cnc2C(C)OC)c2c3cc(ccc31)-c1csc(n1)CC(NC(=O)C1CC1C)C(=O)N1CCCC(N1)C(=O)OCC(C)(C)C2 has an IC50 (curve of first compound, second compound 0.000949 µM) of 181 nM, an IC50 (curve of first compound, second compound 0.003 µM) of 177 nM and an IC50 (curve of first compound, second compound 0.00949 µM) of 128 nM. The IC50 (curve of first compound, second compound 0.03 µM) was 141 nM, the IC50 (curve of first compound, second compound 0.0949 µM) was 80 nM and the IC50 (curve of first compound, second compound 0.3 µM) was < 3.16 nM. It also gave a viability, T/C (second compound 0.000949 µM, first compound 0.00316 µM) of 98.9%, a viability, T/C (second compound 0.000949 µM, first compound 0.01 µM) of 108% and a viability, T/C (second compound 0.000949 µM, first compound 0.0316 µM) of 80.5%. The viability, T/C (second compound 0.000949 µM, first compound 0.1 µM) was 75.7%, the viability, T/C (second compound 0.000949 µM, first compound 0.316 µM) was 23.7% and the viability, T/C (second compound 0.000949 µM, first compound 1 µM) was 27.7%. For the same compound, the viability, T/C (second compound 0.003 µM, first compound 0.00316 µM) was 110%, the viability, T/C (second compound 0.003 µM, first compound 0.01 µM) was 91% and the viability, T/C (second compound 0.003 µM, first compound 0.0316 µM) was 82%. It also gave a viability, T/C (second compound 0.003 µM, first compound 0.1 µM) of 75.7%, a viability, T/C (second compound 0.003 µM, first compound 0.316 µM) of 18.9% and a viability, T/C (second compound 0.003 µM, first compound 1 µM) of 29.3%. It also gave a viability, T/C (second compound 0.00949 µM, first compound 0.00316 µM) of 95%, a viability, T/C (second compound 0.00949 µM, first compound 0.01 µM) of 101% and a viability, T/C (second compound 0.00949 µM, first compound 0.0316 µM) of 66.7%. For the same compound, the viability, T/C (second compound 0.00949 µM, first compound 0.1 µM) was 69.5%, the viability, T/C (second compound 0.00949 µM, first compound 0.316 µM) was 17.6% and the viability, T/C (second compound 0.00949 µM, first compound 1 µM) was 24.9%. The viability, T/C (second compound 0.03 µM, first compound 0.00316 µM) was 97.9%, the viability, T/C (second compound 0.03 µM, first compound 0.01 µM) was 86.8% and the viability, T/C (second compound 0.03 µM, first compound 0.0316 µM) was 75.5%. The viability, T/C (second compound 0.03 µM, first compound 0.1 µM) was 63.6%, the viability, T/C (second compound 0.03 µM, first compound 0.316 µM) was 15.3% and the viability, T/C (second compound 0.03 µM, first compound 1 µM) was 21.6%. For the same compound, the viability, T/C (second compound 0.0949 µM, first compound 0.00316 µM) was 80.2%, the viability, T/C (second compound 0.0949 µM, first compound 0.01 µM) was 80% and the viability, T/C (second compound 0.0949 µM, first compound 0.0316 µM) was 64.4%. For the same compound, the viability, T/C (second compound 0.0949 µM, first compound 0.1 µM) was 49.9%, the viability, T/C (second compound 0.0949 µM, first compound 0.316 µM) was 10.8% and the viability, T/C (second compound 0.0949 µM, first compound 1 µM) was 17.4%. The viability, T/C (second compound 0.3 µM, first compound 0.00316 µM) was 40.9%, the viability, T/C (second compound 0.3 µM, first compound 0.01 µM) was 46.2% and the viability, T/C (second compound 0.3 µM, first compound 0.0316 µM) was 28.5%. The viability, T/C (second compound 0.3 µM, first compound 0.1 µM) was 25.1%, the viability, T/C (second compound 0.3 µM, first compound 0.316 µM) was 14.6% and the viability, T/C (second compound 0.3 µM, first compound 1 µM) was 10.3%.
`Nc1ccn(C2OC(CO)C(O)C2(F)F)c(=O)n1` (stereo not drawn) + C#Cc1c(F)ccc2cc(O)cc(-c3ncc4c(N5CC6CCC(C5)N6)nc(OCC56CCCN5CC(F)C6)nc4c3F)c12 was tested, and the IC50 [1] was 170 nM, the IC50 [2] was 164 nM and the IC50 [3] was 118 nM. For the same compound, the IC50 [4] was 74.4 nM, the IC50 (curve of first compound, second compound 3.16 µM) was 57.6 nM and the IC50 (curve of first compound, second compound 10 µM) was < 3.16 nM. It also gave a viability, T/C (second compound 0.0316 µM, first compound 0.00316 µM) of 101%, a viability, T/C (second compound 0.0316 µM, first compound 0.01 µM) of 104% and a viability, T/C [5] of 81%. The viability, T/C [6] was 72.6%, the viability, T/C [7] was 20.5% and the viability, T/C [8] was 26.8%. For the same compound, the viability, T/C (second compound 0.1 µM, first compound 0.00316 µM) was 104%, the viability, T/C (second compound 0.1 µM, first compound 0.01 µM) was 97.1% and the viability, T/C [9] was 85.5%. For the same compound, the viability, T/C [10] was 72.6%, the viability, T/C [11] was 15.2% and the viability, T/C [12] was 24.4%. The viability, T/C (second compound 0.316 µM, first compound 0.00316 µM) was 92.5%, the viability, T/C (second compound 0.316 µM, first compound 0.01 µM) was 92.4% and the viability, T/C [13] was 84.1%. It also gave a viability, T/C [14] of 56.4%, a viability, T/C [15] of 16.5% and a viability, T/C [16] of 17.5%. The viability, T/C (second compound 1 µM, first compound 0.00316 µM) was 76.9%, the viability, T/C (second compound 1 µM, first compound 0.01 µM) was 79.5% and the viability, T/C [17] was 66.8%. The viability, T/C [18] was 45.5%, the viability, T/C [19] was 13.8% and the viability, T/C [20] was 17.5%. The viability, T/C (second compound 3.16 µM, first compound 0.00316 µM) was 61.1%, the viability, T/C (second compound 3.16 µM, first compound 0.01 µM) was 62.6% and the viability, T/C (second compound 3.16 µM, first compound 0.0316 µM) was 61.3%. For the same compound, the viability, T/C (second compound 3.16 µM, first compound 0.1 µM) was 39.9%, the viability, T/C (second compound 3.16 µM, first compound 0.316 µM) was 14.8% and the viability, T/C (second compound 3.16 µM, first compound 1 µM) was 12.8%. For the same compound, the viability, T/C (second compound 10 µM, first compound 0.00316 µM) was 54.7%, the viability, T/C (second compound 10 µM, first compound 0.01 µM) was 45.1% and the viability, T/C (second compound 10 µM, first compound 0.0316 µM) was 41.7%. It also gave a viability, T/C (second compound 10 µM, first compound 0.1 µM) of 15.1%, a viability, T/C (second compound 10 µM, first compound 0.316 µM) of 18.1% and a viability, T/C (second compound 10 µM, first compound 1 µM) of 16.2%.
For `CCc1c2c(nc3ccc(O)cc13)-c1cc3c(c(=O)n1C2)COC(=O)[C@]3(O)CC`, the viability, T/C (compound 0.000949 µM) was 92.4% [middle of 4 runs], the viability, T/C (compound 0.003 µM) was 93.4% [middle of 4 runs] and the viability, T/C (compound 0.00949 µM) was 74.5% [middle of 4 runs]. For the same compound, the viability, T/C (compound 0.03 µM) was 61.8% [middle of 4 runs], the viability, T/C (compound 0.0949 µM) was 30.2% [middle of 4 runs] and the viability, T/C (compound 0.3 µM) was 19.9% [middle of 4 runs]. The IC50 (curve of compound) was 43.7 nM [middle of 4 runs].
For `CCC(CC)c1cc(NC2CCC(N)C2)n2nccc2n1` (stereo not drawn) + C=CC(=O)N1CCN(c2nc(OCC3CCCN3C)nc3c(F)c(-c4nc(N)cc(C)c4C(F)(F)F)c(Cl)cc23)C(C)C1, the IC50 (curve of first compound, second compound 0.00316 µM) was 4140 nM, the IC50 (curve of first compound, second compound 0.01 µM) was 4690 nM and the IC50 [1] was 5540 nM. For the same compound, the IC50 [2] was 4920 nM, the IC50 [3] was 4660 nM and the IC50 [4] was 4540 nM. The viability, T/C (second compound 0.00316 µM, first compound 0.0316 µM) was 99.6%, the viability, T/C (second compound 0.00316 µM, first compound 0.1 µM) was 100% and the viability, T/C (second compound 0.00316 µM, first compound 0.316 µM) was 104%. The viability, T/C (second compound 0.00316 µM, first compound 1 µM) was 95.2%, the viability, T/C (second compound 0.00316 µM, first compound 3.16 µM) was 64.2% and the viability, T/C (second compound 0.00316 µM, first compound 10 µM) was 3.95%. For the same compound, the viability, T/C (second compound 0.01 µM, first compound 0.0316 µM) was 102%, the viability, T/C (second compound 0.01 µM, first compound 0.1 µM) was 108% and the viability, T/C (second compound 0.01 µM, first compound 0.316 µM) was 106%. It also gave a viability, T/C (second compound 0.01 µM, first compound 1 µM) of 102%, a viability, T/C (second compound 0.01 µM, first compound 3.16 µM) of 73.5% and a viability, T/C (second compound 0.01 µM, first compound 10 µM) of 5.05%. The viability, T/C [5] was 100%, the viability, T/C [6] was 115% and the viability, T/C [7] was 100%. The viability, T/C [8] was 103%, the viability, T/C (second compound 0.0316 µM, first compound 3.16 µM) was 92.5% and the viability, T/C (second compound 0.0316 µM, first compound 10 µM) was 5.29%. The viability, T/C [9] was 102%, the viability, T/C [10] was 113% and the viability, T/C [11] was 102%. The viability, T/C [12] was 107%, the viability, T/C (second compound 0.1 µM, first compound 3.16 µM) was 79.1% and the viability, T/C (second compound 0.1 µM, first compound 10 µM) was 3.6%. For the same compound, the viability, T/C [13] was 97%, the viability, T/C [14] was 97.2% and the viability, T/C [15] was 104%. It also gave a viability, T/C [16] of 109%, a viability, T/C (second compound 0.316 µM, first compound 3.16 µM) of 73.3% and a viability, T/C (second compound 0.316 µM, first compound 10 µM) of 4.47%. It also gave a viability, T/C [17] of 107%, a viability, T/C [18] of 105% and a viability, T/C [19] of 95.8%. For the same compound, the viability, T/C [20] was 102%, the viability, T/C (second compound 1 µM, first compound 3.16 µM) was 70.5% and the viability, T/C (second compound 1 µM, first compound 10 µM) was 5.01%.
